Results reported in patent US11324858B2, “Biomaterials for enhanced implant-host integration” (Massachusetts Institute of Technology, priority 2012, dated 2022).
“Also recorded” adds a separate entry of the source.

What was measured:
[1] = test system: HUVECs and 10T1/2s; assay: Cord formation/contraction of HUVEC and 10T1/2 cells in collagen within PDMS microchannels, with contractility inhibitors; assay type: cell-based, human, mouse; conditions: treated immediately after seeding; 20 μM blebbistatin or 25 μM Y27632
Protocol: To test whether patterned endothelial cell (EC) cords induce vivo vessel formation in vivo, EC cords embedded in a fibrin matrix were implanted into the intraperitoneal space of nude mice (schematic, FIG. 1A). The cords were first prepared by seeding HUVECs and 10T1/2 cells suspended within collagen pre-polymer into a PDMS template and allowed to contract and remodel the collagen over a period of 4 hours. During this maturation period, the cells contracted against the matrix and each other, which caused the cords to shrink in diameter to approximately 50% of their original size (FIG. 1B). The HUVECs and 10T1/2 cells were mobile within the cords and also underwent some sorting during this time, with many of the 10T1/2 localizing to the periphery of the cords (FIG. 1C). […] After allowing the cords to contract, they were embedded into a larger fibrin gel (FIG. 1E) and prepared for implantation by attaching the samples to a polypropylene surgical mesh. The cords were implanted adjacent to a fat pad into athymic mice and resected at various time points. Tissues resected after 7 days, sectioned and stained with H&E indicated the presence of blood in areas where EC cords were initially present (FIG. 1F).
Micropatterning of Endothelial cell cords. EC cords were micropatterned as previously described (2). […]

[2] = test system: hepatic aggregates; assay: Diffusion of DAPI through ligated constructs after i.p. injection; assay type: in vivo, mouse; conditions: post i.p. injection, EC Cord Ligated procedure
Protocol: FIGS. 16A-16B show the diffusion of small-molecule DAPI through ligated constructs. Constructs containing both hepatic aggregates and cords were implanted using procedures identical to those of the “EC Cord Ligated” control. Following implantation, the animals were injected i.p. with DAPI using the same volume and concentration typically used for luciferin administration. […] By 20 min post injection, DAPI-positive hepatic aggregates were identified throughout the constructs as shown by FIG. 16B.
To explore whether this vascularization strategy has potential to enable applications such as human tissue replacement or humanized mouse models, it was tested whether coimplantation of EC cords can support primary human hepatocytes. […] To test whether enhanced hepatic function in animals with EC cords was the result of direct paracrine signaling between adjacent EC cords and hepatocytes or of improved access to a blood supply, the parametrial fat pad was severed upstream of the constructs immediately after implantation to reduce blood supply (“EC Cord Ligated”; FIG. 4E). Bioluminescence imaging was performed 20 min after luciferin injection at each time point, which was confirmed to be adequate time for diffusionbased permeation of the construct in ligated control tissues by DAPI (a small molecule similar in size to luciferin; FIG. 16).

Row | Structure (SMILES) | cord formation / cord contraction under contractility inhibitor [1] | time to permeate construct and stain hepatic aggregates [2]
1 | C[C@@H](N)[C@H]1CC[C@H](C(=O)Nc2ccncc2)CC1 [Y27632] | failed to form cords | –
2 | N=C(N)c1ccc(-c2cc3ccc(C(=N)N)cc3[nH]2)cc1 [DAPI] | – | ≤ 20 min
3 | Cc1ccc2c(c1)C(=O)C1(O)CCN(c3ccccc3)C1=N2 (stereo not drawn) [blebbistatin] | prevented their contraction and elongation of the cells along the collagen; also recorded: failed to form cords | –
